Reference: US5164188A, “Biodegradable ocular implants” (Visionex, Inc., priority 1989, dated 1992)
Like-named read-outs stand apart in the source and are kept apart here.

How the values were obtained:
[1] = MTX level in eye, microcapsules in pars plana (EMIT); type: in vivo, rabbit; settings: for Drug level, LE PC: left eye, posterior chamber, microcapsule in one eye only
[2] = MTX level in eye, plaque in pars plana (EMIT); type: in vivo, rabbit; settings: for Drug level, LE PC: left eye, posterior chamber, plaque in one eye only
[3] = rabbit, in vivo
[4] = rabbit, in vivo; remark: listed apart in the source
in vivo [5] = settings: rabbit
in vivo [6] = settings: rabbit; remark: listed apart in the source
VX2 adenocarcinoma = settings: in vitro; cited from earlier work

CN(Cc1cnc2nc(N)nc(N)c2n1)c1ccc(C(=O)N[C@@H](CCC(=O)O)C(=O)O)cc1 [MTX, methotrexate]
Drug level, LE PC ([1]; 1 wk): 0 ng/mL
Drug level, LE PC ([1]; 2 wks): 0 ng/mL
Drug level, LE PC ([1]; 3 wks): 0 ng/mL
Drug level, LE PC ([1]; 4 wks): 0 ng/mL
Drug level, LE PC ([1]; 5 wks): 0 ng/mL
Drug level, LE PC ([1]; 6 wks): 0 ng/mL
concentration at 168 h ([1]; rabbit, posterior chamber of eye, right eye, 1 wk, microcapsule, read-out: Drug level, RE PC): 800 ng/mL
concentration at 336 h ([1]; rabbit, posterior chamber of eye, right eye, 2 wks, microcapsule, read-out: Drug level, RE PC): 1200 ng/mL
concentration at 504 h ([1]; rabbit, posterior chamber of eye, right eye, 3 wks, microcapsule, read-out: Drug level, RE PC): 1400 ng/mL
concentration at 672 h ([1]; rabbit, posterior chamber of eye, right eye, 4 wks, microcapsule, read-out: Drug level, RE PC): 700 ng/mL
concentration at 840 h ([1]; rabbit, posterior chamber of eye, right eye, 5 wks, microcapsule, read-out: Drug level, RE PC): 1000 ng/mL
concentration at 1008 h ([1]; rabbit, posterior chamber of eye, right eye, 6 wks, microcapsule, read-out: Drug level, RE PC): 900 ng/mL
Drug level, LE PC ([2]; 1 mo): 0 ng/mL
Drug level, LE PC ([2]; 2 mos): 0 ng/mL
Drug level, LE PC ([2]; 3 mos): 0 ng/mL
concentration at 720 h ([2]; rabbit, posterior chamber of eye, right eye, 1 mo, plaque, read-out: Drug level, RE PC): 1500 ng/mL
concentration at 1440 h ([2]; rabbit, posterior chamber of eye, right eye, 2 mos, plaque, read-out: Drug level, RE PC): 4000 ng/mL
concentration at 2160 h ([2]; rabbit, posterior chamber of eye, right eye, 3 mos, plaque, read-out: Drug level, RE PC): 2000 ng/mL

C[C@]12CCC(=O)C=C1CC[C@@H]1[C@@H]2[C@@H](O)C[C@@]2(C)[C@H]1CC[C@]2(O)C(=O)CO [Hydrocortisone, hydrocortisone]
Drug level, RE PC ([3]; 43200 min): 0 ng/mL
Drug level, RE PC ([3]; 86400 min): 0 ng/mL
Drug level, RE PC ([3]; 129600 min): 0 ng/mL
Drug level, RE PC ([4]; 10080 min): 0 ng/mL
Drug level, RE PC ([4]; 20160 min): 0 ng/mL
Drug level, RE PC ([4]; 30240 min): 0 ng/mL
Drug level, RE PC ([4]; 40320 min): 0 ng/mL
Drug level, RE PC ([4]; 50400 min): 0 ng/mL
Drug level, RE PC ([4]; 60480 min): 0 ng/mL
concentration at 720 h (in vivo [5]): 1300 ng/mL
concentration at 1440 h (in vivo [5]): 1900 ng/mL
concentration at 2160 h (in vivo [5]): 2300 ng/mL
concentration at 168 h (in vivo [6]): 1300 ng/mL
concentration at 336 h (in vivo [6]): 2000 ng/mL
concentration at 504 h (in vivo [6]): 2400 ng/mL
concentration at 672 h (in vivo [6]): 1100 ng/mL
concentration at 840 h (in vivo [6]): 900 ng/mL
concentration at 1008 h (in vivo [6]): 2000 ng/mL

CC[C@]1(O)C[C@H]2CN(CCc3c([nH]c4ccccc34)[C@@](C(=O)OC)(c3cc4c(cc3OC)N(C=O)[C@H]3[C@@](O)(C(=O)OC)[C@H](OC(C)=O)[C@]5(CC)C=CCN6CC[C@]43[C@@H]65)C2)C1 [Vincristine]
IC50 (VX2 adenocarcinoma): 2 to 3 ng/mL
